The results in this text go back to patent publication US5721366A, “Platelet aggregation inhibitors” (G. D. Searle & Co, priority 1995, dated 1998).

Structures can show the parent of a compound that is named as a salt.

One may read the IC50 as the concentration that inhibits the measured activity by half. Low values mean greater potency, high ones weaker potency. Broadly, the inhibition is the percentage by which the read-out fell short of the control.

One assay deals with Human platelet aggregation (platelet-rich plasma). Nature of the assay: Inhibition of Human Platelet Aggregation (PRP), collagen-induced. Type of assay: cell-based. To be noted: Homo sapiens, Platelet, collagen-induced aggregation (4 μg/ml final), 37° C. On the procedure:
Inhibition of Human Platelet Aggregation (PRP)
Platelet rich plasma was prepared from citrated whole blood (3.8% Na citrate, 1:10 in 30 ml blood) withdrawn from the antecubital vein (n=1). PRP was prepared by centrifugation (Sorvall RC3C, DuPont, Wilmington, Del.) of the whole blood at 1000×g for 3 min, allowing the centrifuge to stop without braking. Platelet poor plasma (PPP) was prepared by centrifugation of PRP at 2000×g for 10 min. […] Aggregation was measured in a 4 channel aggregometer (model PAP-4C, Bio/Data Corp., Hatboro, Pa.). Aliquots of PPP were used to standardize the aggregometer for measurement of maximum light transmission. Platelet aggregation was measured as an increase in light transmission.
PRP (430 μl aliquot) was preincubated with 50 μl of various concentrations of compound (dissolved in 10% ETOH/water at a concentration of 10^-3 M. Compounds were diluted to desired concentration with 0.9% NaCl) for 2 min at 37° C., with stirring at 900 rpm, in the aggregometer. The stock collagen (Chronolog, Havertown, Pa., equine tendon) was diluted 1:10 with a 5% dextrose and water solution. The vehicle control response was obtained by adding 20 μl diluted collagen to the untreated aliquot of PRP+50 μl saline. Final collagen concentration was 4 μg/ml. Aggregation was recorded for 3 min following the addition of collagen. […] Percent inhibition was calculated by comparing treated and control samples. IC50 's were calculated graphically from dose-response curves. Average values and standard errors were calculated using the IC50 's of the individual experiments. Statistical analyses were done by an unequal variance, unpaired Student's t-test [Minitab Reference Manual, Minitab Inc., State College, Pa. (1988)]. Statistical significance was assumed when p<0.05 was found.
(§1) (NT in the following table indicates not tested.)
The compound `N=C(N)c1ccc(N2CCC(NC(=O)NCCC(=O)O)C2=O)cc1` (single isomer, unassigned; isomer a) [Example 41, 3-[[[[1-[4-(aminoiminomethyl)phenyl]-2-oxo-3-pyrrolidinyl]amino]carbonyl]amino]propanoic acid trifluoroacetate. Enantiomerically Enriched Isomer A.] showed an IC50 of 150 nM. On the same count and under the same terms, the same measure for `N=C(N)c1ccc(N2CCC(CC(=O)NCCC(=O)O)C2=O)cc1` (single isomer, unassigned; isomer b) [Example 36, 3-[[[1-[4-(aminoiminomethyl)phenyl]-2-oxo-3-pyrrolidinyl]acetyl]amino]propionic acid, trifluoroacetate, enantiomerically enriched isomer B.]: 110 nM. For `N=C(N)c1ccc(N2CCC(CC(=O)NCCC(=O)O)C2=O)cc1` (stereo not drawn) [Example 8, 3-[[[1-[4-(aminoiminomethyl)phenyl]-2-oxo-3-pyrrolidinyl]acetyl]amino]propionic acid], it took 180 nM to reach half-maximal inhibition (IC50).

The same assay, now with this note: collagen-induced aggregation (4 μg/ml final), 37° C.
In the case of `C=C[C@H](CC(=O)O)NC(=O)CC1CCN(c2ccc(C(=N)N)cc2)C1=O` (single isomer, unassigned; isomer a) [Example 4, 3S-[[[1-[4-(aminoiminomethyl)phenyl]-2-oxo-3-pyrrolidinyl]acetyl]amino]-4-pentenoic acid, monohydrochloride, enantiomerically enriched isomer A.], the midpoint of inhibition, the IC50, lay at 55 nM. Still for that read-out and setting: to `C=C[C@H](CC(=O)O)NC(=O)CC1CCN(c2ccc(C(=N)N)cc2)C1=O` (single isomer, unassigned; isomer b) [Example 6, 3S-[[[1-[4-(aminoiminomethyl)phenyl]-2-oxo-3-pyrrolidinyl]acetyl]amino]-4-pentenoic acid, enantiomerically enriched isomer B] belongs 850 nM.

The test system of another assay is Dog platelet aggregation (platelet-rich plasma). Nature of the assay: In-Vitro Platelet Aggregation in PRP (Dog), collagen-induced. Type of assay: cell-based. Conditions: Canis lupus familiaris, @ 1 μM, collagen-induced aggregation. The protocol: In-Vitro Platelet Aggregation in PRP--(Dog)
Healthy male or female dogs were fasted for 8 hours prior to drawing blood; then 60 ml whole blood was collected using a butterfly needle and 30 cc plastic syringe with 6 ml of 0.129M buffered sodium citrate (3.8%) (drawn from a minimum of 3 dogs and blood was pooled). The syringe was rotated carefully as blood was drawn to mix the citrate. Platelet-rich plasma (PRP) was prepared by centrifugation at 975×g for 3.17 minutes at room temperature, allowing the centrifuge to coast to a stop without braking. The PRP was removed from the blood with a plastic pipette and placed in a plastic capped 50 ml Corning conical sterile centrifuge tube which was held at room temperature. Platelet poor plasma (PPP) was prepared by centrifuging the remaining blood at 2000×g for 15 minutes at room temperature allowing the centrifuge to coast to a stop without braking. The platelet count in the PRP was routinely 2-4×10^8 platelets per ml. 400 μl of the PRP preparation and 50 μl of the compound to be tested or saline were preincubated for 2 minutes at 37° C. in a BioData aggregometer (BioData, Horsham, Pa.). 50 μl of collagen (diluted 1:3 with 5% dextrose and water solution, 33 μg/ml final concentration, equine tendon, Chronolog, Havertown, Pa.) was added to the cuvettes and the aggregation was monitored for 3 minutes. All compounds are tested in duplicate.
Results are calculated as follows:
Percent of control=[(maximal OD minus initial OD of compound) divided by (maximal OD minus initial OD of control saline)]×100. The % inhibition=100-(percent of control).
as §1
Regarding `C=C[C@H](CC(=O)O)NC(=O)CC1CCCN(c2ccc(C(=N)N)cc2)C1=O` (single isomer, unassigned; isomer a) [Example 34J], the inhibition at 1 µM came out at 13%. Still for that read-out and setting: to `N=C(N)c1ccc(N2CCC(NC(=O)NCCC(=O)O)C2=O)cc1` (single isomer, unassigned; isomer a) [Example 41, 3-[[[[1-[4-(aminoiminomethyl)phenyl]-2-oxo-3-pyrrolidinyl]amino]carbonyl]amino]propanoic acid trifluoroacetate. Enantiomerically Enriched Isomer A.] belongs 30%.

The same assay, now with this note: Canis lupus familiaris, Platelet, collagen-induced aggregation (33 μg/ml final), 37° C.
In turn, `N=C(N)c1ccc(N2CCCC(CC(=O)NC(CC(=O)O)c3ccco3)C2=O)cc1` (mixture of isomers) [Example 34G, 3-[[[1-[4-(aminoiminomethyl)phenyl]2-oxo-3-piperidinyl]acetyl]amino]-3-(2-furanyl]propanoic acid, diastereomers] displayed a 50% inhibitory concentration (IC50) of 190 nM.

The compound `N=C(N)c1ccc(N2CCC(CC(=O)NC(CC(=O)O)c3ccoc3)C2=O)cc1` (single isomer, unassigned) [Example 51] yielded an IC50 of 50 nM. Still for that read-out and setting: the same measure for `N=C(N)c1ccc(N2CCCC(CC(=O)NCCC(=O)O)C2=O)cc1` (single isomer, unassigned; isomer b) [Example 34B, 3-[[[1-[4-(aminoiminomethyl)phenyl]-2-oxo-3-piperidinyl]acetyl]amino]propanoic acid, enantiomerically enriched isomer B]: 240 nM.

Turning to `N=C(N)c1ccc(N2CCCC(CC(=O)NC(CC(=O)O)c3ccsc3)C2=O)cc1` (single isomer, unassigned; isomer b) [Example 34C, 3-[[[1-[4-(aminoiminomethyl)phenyl]-2-oxo-3-piperidinyl]acetyl]amino]-3-(3-thienyl)propanoic acid, enantiomerically enriched isomer B], 160 nM corresponded to half-maximal inhibition (IC50). In turn, `N=C(N)c1ccc(N2CCCC(CC(=O)NC(CC(=O)O)c3ccoc3)C2=O)cc1` (single isomer, unassigned; isomer b) [Example 34E] registered an IC50 of 70 nM.

Compound `C=C[C@H](CC(=O)O)NC(=O)CC1CCCN(c2ccc(C(=N)N)cc2)C1=O` (single isomer, unassigned; isomer b) [Example 34L] gave an IC50 of 59 nM. The IC50 values of the last two compounds are within 1.5-fold of each other.

As for `C#C[C@H](CC(=O)O)NC(=O)CC1CCCN(c2ccc(C(=N)N)cc2)C1=O` (single isomer, unassigned; isomer b) [Example 34N], half-maximal inhibition (IC50) was put at 59 nM. `N=C(N)c1ccc(N2CCC(CC(=O)NCCC(=O)O)C2=O)cc1` (single isomer, unassigned; isomer b) [Example 36, 3-[[[1-[4-(aminoiminomethyl)phenyl]-2-oxo-3-pyrrolidinyl]acetyl]amino]propionic acid, trifluoroacetate, enantiomerically enriched isomer B.] gave a half-inhibitory concentration (IC50) of 91 nM. The same measure, in the same setting: to `N=C(N)c1ccc(N2CCC(NC(=O)NCCC(=O)O)C2=O)cc1` (single isomer, unassigned; isomer b) [Example 43, 3-[[[[1-[4-(aminoiminomethyl)phenyl]-2-oxo-3-pyrrolidinyl]amino]carbonyl]amino]propanoic acid trifluoroacetate. Enantiomerically Enriched Isomer B.] belongs 90 nM; to `C[C@H](CC(=O)O)NC(=O)NC1CCN(c2ccc(C(=N)N)cc2)C1=O` (single isomer, unassigned; isomer b) [Example 45], 39 nM. `N=C(N)c1ccc(N2CCC(NC(=O)NC[C@H](NC(=O)OCc3ccccc3)C(=O)O)C2=O)cc1` (single isomer, unassigned; isomer b) [Example 49] returned an IC50 of 54 nM. The same measure, in the same setting: the same measure for `C=C[C@H](CC(=O)O)NC(=O)CC1CCN(c2ccc(C(=N)N)cc2)C1=O` (stereo partly drawn) [Example 2, 3(S)-[[[1-[4-(aminoiminomethyl)phenyl]-2-oxo-3-pyrrolidinyl]acetyl]amino]-4-pentenoic acid, monohydrochloride]: 72 nM; for `N=C(N)c1ccc(N2CCC(CC(=O)NCCC(=O)O)C2=O)cc1` (stereo not drawn) [Example 8, 3-[[[1-[4-(aminoiminomethyl)phenyl]-2-oxo-3-pyrrolidinyl]acetyl]amino]propionic acid]: 180 nM.

In turn, `C#C[C@H](CC(=O)O)NC(=O)CC1CCN(c2ccc(C(=N)N)cc2)C1=O` (stereo partly drawn) [Example 14, 3(S) -[[[1-[4-(aminoiminomethyl)phenyl]-2-oxo-3-pyrrolidinyl]acetyl]amino]-4-pentynoic acid] came in with an IC50 of 120 nM. This IC50 lies about 1.5-fold lower than the previous one. Still for that read-out and setting: to `C[Si](C)(C)C#C[C@H](CC(=O)O)NC(=O)CC1CCCN(c2ccc(C(=N)N)cc2)C1=O` (stereo partly drawn) [Example 22, 3S-[[[1-[4-(aminoiminomethyl)phenyl]-2-oxo-3-piperidinyl]acetyl]amino]-5-(trimethylsilyl)-4-pentynoic acid] belongs 180 nM; to `C#CC(CC(=O)O)NC(=O)CC1CCCN(c2ccc(C(=N)N)cc2)C1=O` (stereo not drawn) [Example 24, 3-[[[1-[4-(aminoiminomethyl)phenyl]-2-oxo-3-piperidinyl]acetyl]amino]-4-pentynoic acid.], 190 nM. For `CC(C)(C)C#CC(CC(=O)O)NC(=O)CC1CCCN(c2ccc(C(=N)N)cc2)C1=O` (stereo not drawn) [Example 26, 3-[[[1-[4-(aminoiminomethyl)phenyl]-2-oxo-3-piperidinyl]acetyl]amino]-6,6-dimethyl-4-heptynoic acid], the IC50 is 590 nM.

`C=C[C@H](CC(=O)O)NC(=O)CC1CCCN(c2ccc(C(=N)N)cc2)C1=O` (stereo partly drawn) [Example 34, 3(S)-[[[1-[4-(aminoiminomethyl)phenyl]-2-oxo-3-piperidinyl]acetyl]amino]-4-pentenoic acid.] registered an IC50 of 120 nM. Against the preceding compound, the IC50 is about 4.9-fold lower. Regarding `COc1ccc(C(CC(=O)O)NC(=O)CC2CCCN(c3ccc(C(=N)N)cc3)C2=O)cc1` (stereo not drawn) [Example 34I, 3-[[[1-[4-(aminoiminomethyl)phenyl]-2-oxo-3-piperidinyl]acetyl]amino]-3-(4-methoxyphenyl)propanoic acid], the IC50 was 180 nM. Compared with the last compound, the IC50 is about 1.5-fold higher. Same read-out and setting: to `N=C(N)c1ccc(N2CCC(NC(=O)NCCC(=O)O)C2=O)cc1` (stereo not drawn) [Example 38, 3-[[[[1-[4-(aminoiminomethyl)phenyl]-2-oxo-3-pyrrolidinyl]amino]carbonyl]amino]propionic acid, trifluoroacetate.] belongs 125 nM.

The assay is the same for the next values; noted with them: collagen-induced aggregation (33 μg/ml final), 37° C.
With “3[S]-[[[[1-[4-(aminoiminomethyl)phenyl]-2-oxo-3-pyrrolidinyl]amino]carbonyl]amino]benzenepropanoic acid trifluoroacetate. Enantiomerically Enriched Isomer B [Example 47]”, the IC50 came to 62 nM. The same measure, in the same setting: the same measure for `C=C[C@H](CC(=O)O)NC(=O)CC1CCN(c2ccc(C(=N)N)cc2)C1=O` (single isomer, unassigned; isomer a) [Example 4, 3S-[[[1-[4-(aminoiminomethyl)phenyl]-2-oxo-3-pyrrolidinyl]acetyl]amino]-4-pentenoic acid, monohydrochloride, enantiomerically enriched isomer A.]: 52 nM; for `C=C[C@H](CC(=O)O)NC(=O)CC1CCN(c2ccc(C(=N)N)cc2)C1=O` (single isomer, unassigned; isomer b) [Example 6, 3S-[[[1-[4-(aminoiminomethyl)phenyl]-2-oxo-3-pyrrolidinyl]acetyl]amino]-4-pentenoic acid, enantiomerically enriched isomer B]: 1600 nM.
